{"source": "patent US6593084B2", "about": "“Carcinogen assay” (priority 1998, dated 2003)", "key": {"mouse liver": {"system": "mouse liver", "test": "Differential gene expression in livers of DMBA treated mice, Atlas membranes", "details": "liver of DMBA treated animal vs control animal"}, "mammalian cells": {"system": "mammalian cells", "details": "mammalian cells in vitro; cited from earlier work"}, "Salmonella": {"system": "Salmonella", "details": "cited from earlier work"}, "mice": {"system": "mice", "details": "cited from earlier work"}, "[1]": {"system": "primary mouse keratinocytes", "test": "Differential display and Northern blot hybridization of mRNAs in treated primary mouse keratinocytes", "type": "cell-based", "details": "24 hours treatment", "description": "Cultures of newborn mouse keratinocytes were established essentially as described by H. Hennings (In Keratinocyte Methods, Cambridge University Press (1994), pages 21-23). Briefly, mice two to three days postpartum were sacrificed by metaphane narcosis, rinsed in 70% ethanol, and kept on ice. Skins were peeled off, stretched out and floated (with epidermis facing upward) on the surface of a 0.25% trypsin solution in Ca^+2, Mg^+2 free PBS overnight at 4° C. Skins were transferred to a sterile surface, the epidermis was separated from dermis, the epidermis was minced, and the mixture stirred in serum-free keratinocyte growth medium (KGM, Clonetics). This cell suspension was filtered through nylon gauze, cells were centrifuged (2,000 rpm for 5 min), resuspended in KGM with 20 μM Ca^+2 (20 KGM), and then the cells were counted and plated (approximately 2×10^6 per 10 cm plate coated with mouse collagen type IV in 20 KGM) and the cell cultures were incubated at 37° C. with a 7% CO2. After 16-24 hours, cells were washed in Ca^+2, Mg^+2 free phosphate buffered saline (PBS), and cultivated on 20 KGM, with the cell culture medium changed (that is, old medium discarded and fresh medium provided) each other day. For induction of terminal differentiation, medium was changed, usually on the sixth day of cultivation of the keratinocytes, to KGM containing 1.2 mM Ca^+2, and the keratinocytes were cultivated for 24 hours before RNA isolation.\nFor phorbol-myristate acetate (TPA) treatment, keratinocyte cultures were fed with 20 KGM containing 0.1 μg/ml of 12-O-tetradecanoyil-13-phorbol-acetate for 24 hours, before isolation of RNA.\nTotal RNA was isolated by acid phenol procedure using TRI Reagent™ (Molecular Research Center, Inc.) and according to manufacturer's instructions from (1) terminally differentiated keratinocytes, cultivated in KGM medium containing 1.2 mM Ca^+2 for 24 hours; (2) TPA-treated keratinocytes, cultivated in KGM containing 20 μM Ca^+2 and 0.1 μg/ml TPA for 24 hours; and (3) control keratinocyte cultures fed 24 hours before RNA isolation with 20 KGM containing, in some experiments, 0.05% DMSO (dimethyl sulphoxide).\nDifferential display of total RNAs from keratinocyte cultures (1), (2), and (3) was performed with Delta-RNA Fingerprinting Kit™ (Clontech) according to the manufacturer's instructions. Briefly, cDNAs were synthesized from total RNAs using Murine Moloney Leukemia Virus (MMLV) reverse transcriptase. Two dilutions of cDNA were prepared (diluted 10-fold and 40-fold). Each total RNA sample was used to synthesize cDNA that was amplified using polymerase chain reaction (PCR) methodology using P & T primers in presence of [α-^33P] dATP. […] The appearance of a band from a sample that was not present in the control lane indicated overexpression and the disappearance or reduction in intensity of a band indicated suppression of synthesis. The candidate bands were cut from the sequencing gel and reamplified using the original primer pairs. Following electrophoresis on agarose gels, reamplified DNA fragments were cut out and purified using a QIAEX II gel extraction kit™ (QIAGEN). The DNAs were labeled and used to confirm the differential expression by hybridization with Northern blots of Poly (A)^+ containing RNA isolated from total RNAs (1), (2), and (3). Equal quantities of these RNAs were electrophoresed on agarose gels and blotted to nitrocellulose filters. Equal loading of RNA was confirmed by hybridization with a β-actin probe, whose mRNA was assumed to be present in approximately equal amounts in all of the preparations. The blots were stripped of radiolabel and then used to confirm the differential synthesis of a fragment. Upon confirmation, the fragment was cloned into pCRII using the TA cloning kit™ (Introvitrogen). Cloned DNA fragments were sequenced with SequiTerm Excel II kit™ (Epicentre Technology)."}}}
{"molecule": "Cc1c2ccccc2c(C)c2c1ccc1ccccc12", "note": "[DMBA, 7, 12-dimethyl benz[α] anthracene]", "values": [{"measurement": "differential pattern of gene expression in liver", "setting": "mouse liver", "value": "differential expression was observed"}]}
{"molecule": "c1ccoc1", "note": "[Furan]", "values": [{"measurement": "chromosomal aberrations", "setting": "mammalian cells", "value": "induces"}, {"measurement": "gene mutations", "setting": "mammalian cells", "value": "induces"}, {"measurement": "sister chromatide exchanges", "setting": "mammalian cells", "value": "induces"}, {"measurement": "Salmonella mutagenicity test", "setting": "Salmonella", "value": "negative"}, {"measurement": "induction of hepatocellular carcinomas", "setting": "mice", "value": "induce hepatocellular carcinomas"}]}
{"molecule": "ClC=C(Cl)Cl", "note": "[TCE, trichloroethylene]", "values": [{"measurement": "Salmonella mutagenicity test", "setting": "Salmonella", "value": "negative"}, {"measurement": "induction of hepatocellular carcinomas", "setting": "mice", "value": "induce hepatocellular carcinomas"}]}
{"molecule": "CCCCCCCCCCCCCC(=O)O[C@@H]1[C@@H](C)[C@@]2(O)[C@@H](C=C(CO)C[C@]3(O)C(=O)C(C)=C[C@@H]23)[C@@H]2C(C)(C)[C@]12OC(C)=O", "note": "[TPA, 12-O-tetradecanoyil-13-phorbol-acetate]", "values": [{"measurement": "Changes in Expression (Comparative to Untreated cells)", "setting": "[1]; gene fragment 2552/4, 5.5 kb RNA", "value": "Suppressed in TPA-"}, {"measurement": "Changes in Expression (Comparative to Untreated cells)", "setting": "[1]; gene fragment 2672/1, Mouse ESTs AA492919, AA607761", "value": "Suppressed in TPA-"}, {"measurement": "Changes in Expression (Comparative to Untreated cells)", "setting": "[1]; gene fragment 4314, AA109991, AA561914, AA067670, AA864127", "value": "Overexpressed in"}, {"measurement": "Changes in Expression (Comparative to Untreated cells)", "setting": "[1]; gene fragment 19102/3, Mouse ESTs AA038613, W14382", "value": "Suppressed in TPA-"}, {"measurement": "Changes in Expression (Comparative to Untreated cells)", "setting": "[1]; gene fragment 31774/6/8, 6 kb RNA, Mouse ESTs AA423711, W82493", "value": "Suppressed in TPA-"}, {"measurement": "Changes in Expression (Comparative to Untreated cells)", "setting": "[1]; gene fragment 31777, Mouse EST AA073833", "value": "Overexpressed in"}, {"measurement": "Changes in Expression (Comparative to Untreated cells)", "setting": "[1]; gene fragment 83442, Mouse Connexin 26", "value": "Overexpressed in"}, {"measurement": "Changes in Expression (Comparative to Untreated cells)", "setting": "[1]; gene fragment 110176/4, homologous to Mouse Cytokeratin Endo A", "value": "Suppressed in TPA-"}, {"measurement": "Changes in Expression (Comparative to Untreated cells)", "setting": "[1]; gene fragment 3177715, Mouse ESTs AA423711, AA637015", "value": "Suppressed in TPA-"}]}
